Laboratory results from patent US11464763B2, “Parasiticidal compositions comprising an isoxazoline active agent, methods and uses thereof” (BOEHRINGER INGELHEIM ANIMAL HEALTH USA INC., priority 2011, dated 2022).

System: Ctenocephalides felis
Experiment: Spot-on efficacy at 1 mg/kg against Ctenocephalides felis fleas in cats (Example 7)
Type: in vivo
Conditions: for efficacy against fleas: Group 2 (DMI)
Description: The efficacy of several spot-on formulations comprising Cmpd. A dosed at 1 mg/kg body weight in different carrier vehicles against fleas in cats was studied. Five cats each were allocated to 6 Treatment Groups. The […] per study group were subjected to weekly infestations followed by 24 h flea counts for 5 to 8 weeks, according to the following Group allocations: Group 1—untreated control; Group 2-1.0% (w/v) Cmpd. A in DMI; Group 3-1.0% (w/v) Cmpd. A in diethyl sebacate (DES); Group 4-1.0% (w/v) Cmpd. A in 9% lauryl lactate+DES; Group 5—1% (w/v) Cmpd. A in 8% ethyl oleate+DES; and Group 6-1% (w/v) Cmpd. A in a vehicle comprising Transcutol®+10% (w/v) ethanol+5% polyvinylpyrrolidone+5% TWEEN 80. Cats were infested with approximately 100 C. felis on Day −1 and treated on Day 0 with the corresponding spot-on formulation by application of the formulation directly on the skin in the midline of the neck, between the base of the skull and the shoulder blades in a single spot using a 1 mL syringe. Twelve hours after treatment, fleas were removed and counted. The cats were immediately re-infested with approximately 100 fleas. Fleas were removed and counted on Day 1 at approximately 24 hours post-treatment. Cats were also infested with fleas on Days 7, 21, […], 35, 42 and 49. Fleas were removed and counted approximately 24 hours after infestation on Days 8, 22, 29, 36, 43 and 50.

O=C(CNC(=O)c1ccc(C2=NOC(c3cc(Cl)cc(C(F)(F)F)c3)(C(F)(F)F)C2)c2ccccc12)NCC(F)(F)F (stereo not drawn) [Compound A, 4-[5-[3-chloro-5-(trifluoromethyl)phenyl]-4,5-dihydro-5-(trifluoromethyl)-3-isoxazolyl]-N-[2-oxo-2-[(2,2,2-trifluoroethyl)amino]ethyl]-1-naphthalanecarboxamide]
efficacy against fleas (until Day 50): above 85%
efficacy against fleas (until at least Day 43): above 90%
% Reduction (Group 2: 1.0% in DMI, 1 mg/kg, Day 0 (12 hr)): 22.3%
% Reduction (Group 2: 1.0% in DMI, 1 mg/kg, Day 1): 28.0%
% Reduction (Group 2: 1.0% in DMI, 1 mg/kg, Day 8): 99.3%
% Reduction (Group 2: 1.0% in DMI, 1 mg/kg, Day 22): 99.5%
% Reduction (Group 2: 1.0% in DMI, 1 mg/kg, Day 29): 98.5%
% Reduction (Group 2: 1.0% in DMI, 1 mg/kg, Day 36): 94.2%
% Reduction (Group 2: 1.0% in DMI, 1 mg/kg, Day 43): 94.3%
% Reduction (Group 2: 1.0% in DMI, 1 mg/kg, Day 50): 87.7%
% Reduction (Group 3: 1.0% in DES, 1 mg/kg, Day 0 (12 hr)): 9.6%
% Reduction (Group 3: 1.0% in DES, 1 mg/kg, Day 1): 72.7%
% Reduction (Group 3: 1.0% in DES, 1 mg/kg, Day 8): 99.7%
% Reduction (Group 3: 1.0% in DES, 1 mg/kg, Day 22): 97.4%
% Reduction (Group 3: 1.0% in DES, 1 mg/kg, Day 29): 95.1%
% Reduction (Group 3: 1.0% in DES, 1 mg/kg, Day 36): 79.3%
% Reduction (Group 3: 1.0% in DES, 1 mg/kg, Day 43): 72.2%
% Reduction (Group 3: 1.0% in DES, 1 mg/kg, Day 50): 44.8%
% Reduction (Group 4: 1.0% in 9% lauryl lactate+DES, 1 mg/kg, Day 0 (12 hr)): 9.2%
% Reduction (Group 4: 1.0% in 9% lauryl lactate+DES, 1 mg/kg, Day 1): 36.5%
% Reduction (Group 4: 1.0% in 9% lauryl lactate+DES, 1 mg/kg, Day 8): 99.7%
% Reduction (Group 4: 1.0% in 9% lauryl lactate+DES, 1 mg/kg, Day 22): 98.5%
% Reduction (Group 4: 1.0% in 9% lauryl lactate+DES, 1 mg/kg, Day 29): 98.1%
% Reduction (Group 4: 1.0% in 9% lauryl lactate+DES, 1 mg/kg, Day 36): 89.3%
% Reduction (Group 4: 1.0% in 9% lauryl lactate+DES, 1 mg/kg, Day 43): 92.7%
% Reduction (Group 4: 1.0% in 9% lauryl lactate+DES, 1 mg/kg, Day 50): 79.2%
% Reduction (Group 5: 1% in 8% ethyl oleate+DES, 1 mg/kg, Day 0 (12 hr)): 65.9%
% Reduction (Group 5: 1% in 8% ethyl oleate+DES, 1 mg/kg, Day 1): 77.2%
% Reduction (Group 5: 1% in 8% ethyl oleate+DES, 1 mg/kg, Day 8): 98.4%
% Reduction (Group 5: 1% in 8% ethyl oleate+DES, 1 mg/kg, Day 22): 96.9%
% Reduction (Group 5: 1% in 8% ethyl oleate+DES, 1 mg/kg, Day 29): 95.0%
% Reduction (Group 5: 1% in 8% ethyl oleate+DES, 1 mg/kg, Day 36): 85.5%
% Reduction (Group 5: 1% in 8% ethyl oleate+DES, 1 mg/kg, Day 43): 79.7%
% Reduction (Group 5: 1% in 8% ethyl oleate+DES, 1 mg/kg, Day 50): 64.0%
% Reduction (Group 6: 1% in Transcutol+10% ethanol+5% polyvinylpyrrolidone+5% TWEEN 80, 1 mg/kg, Day 0 (12 hr)): 17.7%
% Reduction (Group 6: 1% in Transcutol+10% ethanol+5% polyvinylpyrrolidone+5% TWEEN 80, 1 mg/kg, Day 1): 75.6%
% Reduction (Group 6: 1% in Transcutol+10% ethanol+5% polyvinylpyrrolidone+5% TWEEN 80, 1 mg/kg, Day 8): 100.0%
% Reduction (Group 6: 1% in Transcutol+10% ethanol+5% polyvinylpyrrolidone+5% TWEEN 80, 1 mg/kg, Day 22): 99.3%
% Reduction (Group 6: 1% in Transcutol+10% ethanol+5% polyvinylpyrrolidone+5% TWEEN 80, 1 mg/kg, Day 29): 97.5%
